Assay results: ChEMBL document CHEMBL1909046, “DrugMatrix in vitro pharmacology data”

Legend:
[1] = molecular target: Vasopressin V1a receptor (Homo sapiens, UniProt P37288); assay type: cell membranes, Membrane; details: hek293; also: in other assays of this panel Not Active means under 50% inhibition at 10 µM
[2] = molecular target: T1, Glucocorticoid receptor (Homo sapiens, UniProt P04150); test: biochemical; also: in other assays of this panel Not Active means under 50% inhibition at 10 µM
T1 sequence (P04150 whole entry): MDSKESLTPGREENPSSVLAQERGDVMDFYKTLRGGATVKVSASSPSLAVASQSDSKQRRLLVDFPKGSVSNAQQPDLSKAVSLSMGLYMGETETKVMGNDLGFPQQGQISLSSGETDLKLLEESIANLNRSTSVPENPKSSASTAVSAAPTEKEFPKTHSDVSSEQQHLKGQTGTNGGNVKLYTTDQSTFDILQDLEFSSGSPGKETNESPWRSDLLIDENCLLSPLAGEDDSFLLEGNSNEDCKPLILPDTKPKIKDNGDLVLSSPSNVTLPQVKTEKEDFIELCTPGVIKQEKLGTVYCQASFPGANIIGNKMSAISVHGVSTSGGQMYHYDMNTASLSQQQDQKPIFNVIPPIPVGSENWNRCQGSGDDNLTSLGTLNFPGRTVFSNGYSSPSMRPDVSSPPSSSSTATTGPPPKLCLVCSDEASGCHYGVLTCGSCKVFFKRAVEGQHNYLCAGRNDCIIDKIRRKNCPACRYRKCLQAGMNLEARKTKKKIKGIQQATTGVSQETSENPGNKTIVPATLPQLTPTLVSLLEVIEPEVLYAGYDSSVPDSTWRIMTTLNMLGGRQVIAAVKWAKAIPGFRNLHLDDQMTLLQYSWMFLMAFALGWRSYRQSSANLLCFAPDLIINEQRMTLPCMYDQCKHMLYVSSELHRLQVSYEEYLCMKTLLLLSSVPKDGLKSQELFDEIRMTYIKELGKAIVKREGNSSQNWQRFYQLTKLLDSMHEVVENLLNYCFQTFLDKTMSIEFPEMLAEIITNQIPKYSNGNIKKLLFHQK

[3] = DRUGMATRIX: GABAA, Flunitrazepam, Central radioligand binding (ligand: [3H] Flunitrazepam); assay type: cell membranes, Rattus norvegicus, Wistar, Brain, Membrane; details: Not Active = under 50% inhibition at 10 µM
[4] = DRUGMATRIX: Phorbol Ester radioligand binding (ligand: [3H] PDBu); assay type: cell membranes, Mus musculus, ICR, Brain, Membrane; details: Not Active = under 50% inhibition at 10 µM
[5] = molecular target: T2, Progesterone receptor (Bos taurus, UniProt Q690N0); test: DRUGMATRIX: Progesterone radioligand binding (ligand: [3H] R-5020); assay type: tissue-based, Uterus; details: Not Active = under 50% inhibition at 10 µM; for Ki: read-out: Ki
T2 sequence (Q690N0 whole entry): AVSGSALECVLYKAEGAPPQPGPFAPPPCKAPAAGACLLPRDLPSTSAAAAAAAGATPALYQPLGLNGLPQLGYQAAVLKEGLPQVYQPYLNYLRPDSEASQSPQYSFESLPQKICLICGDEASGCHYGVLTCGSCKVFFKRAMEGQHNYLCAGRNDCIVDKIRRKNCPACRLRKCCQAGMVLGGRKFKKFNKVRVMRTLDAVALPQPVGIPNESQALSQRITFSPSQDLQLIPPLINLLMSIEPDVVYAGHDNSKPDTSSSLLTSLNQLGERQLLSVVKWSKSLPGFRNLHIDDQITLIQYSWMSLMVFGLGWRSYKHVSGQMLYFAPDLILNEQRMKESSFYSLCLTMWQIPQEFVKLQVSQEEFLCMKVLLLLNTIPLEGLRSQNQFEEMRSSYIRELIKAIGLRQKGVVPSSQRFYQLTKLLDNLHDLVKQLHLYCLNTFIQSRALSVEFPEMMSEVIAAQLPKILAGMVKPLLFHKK

[6] = molecular target: Cytochrome P450 2C19 (Homo sapiens, UniProt P33261); also: in other assays of this panel Not Active means under 50% inhibition at 10 µM
Cytochrome P450 2C19, sequence (P33261 whole entry): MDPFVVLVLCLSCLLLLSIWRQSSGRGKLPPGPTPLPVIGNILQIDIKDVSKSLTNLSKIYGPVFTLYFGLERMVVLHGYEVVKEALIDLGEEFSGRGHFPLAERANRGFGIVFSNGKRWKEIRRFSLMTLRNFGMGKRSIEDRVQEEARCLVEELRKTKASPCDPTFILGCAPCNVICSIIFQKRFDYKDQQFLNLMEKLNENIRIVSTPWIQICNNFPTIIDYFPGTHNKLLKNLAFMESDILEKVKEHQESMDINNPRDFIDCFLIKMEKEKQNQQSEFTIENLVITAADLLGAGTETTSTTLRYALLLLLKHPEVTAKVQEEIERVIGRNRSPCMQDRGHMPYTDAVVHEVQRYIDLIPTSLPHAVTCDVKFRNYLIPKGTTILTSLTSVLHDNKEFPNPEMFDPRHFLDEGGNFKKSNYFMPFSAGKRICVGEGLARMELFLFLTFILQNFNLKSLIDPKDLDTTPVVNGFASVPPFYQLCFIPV

[7] = molecular target: T3, Androgen receptor (Rattus norvegicus, UniProt P15207); also: in other assays of this panel Not Active means under 50% inhibition at 10 µM
T3 sequence (P15207 whole entry): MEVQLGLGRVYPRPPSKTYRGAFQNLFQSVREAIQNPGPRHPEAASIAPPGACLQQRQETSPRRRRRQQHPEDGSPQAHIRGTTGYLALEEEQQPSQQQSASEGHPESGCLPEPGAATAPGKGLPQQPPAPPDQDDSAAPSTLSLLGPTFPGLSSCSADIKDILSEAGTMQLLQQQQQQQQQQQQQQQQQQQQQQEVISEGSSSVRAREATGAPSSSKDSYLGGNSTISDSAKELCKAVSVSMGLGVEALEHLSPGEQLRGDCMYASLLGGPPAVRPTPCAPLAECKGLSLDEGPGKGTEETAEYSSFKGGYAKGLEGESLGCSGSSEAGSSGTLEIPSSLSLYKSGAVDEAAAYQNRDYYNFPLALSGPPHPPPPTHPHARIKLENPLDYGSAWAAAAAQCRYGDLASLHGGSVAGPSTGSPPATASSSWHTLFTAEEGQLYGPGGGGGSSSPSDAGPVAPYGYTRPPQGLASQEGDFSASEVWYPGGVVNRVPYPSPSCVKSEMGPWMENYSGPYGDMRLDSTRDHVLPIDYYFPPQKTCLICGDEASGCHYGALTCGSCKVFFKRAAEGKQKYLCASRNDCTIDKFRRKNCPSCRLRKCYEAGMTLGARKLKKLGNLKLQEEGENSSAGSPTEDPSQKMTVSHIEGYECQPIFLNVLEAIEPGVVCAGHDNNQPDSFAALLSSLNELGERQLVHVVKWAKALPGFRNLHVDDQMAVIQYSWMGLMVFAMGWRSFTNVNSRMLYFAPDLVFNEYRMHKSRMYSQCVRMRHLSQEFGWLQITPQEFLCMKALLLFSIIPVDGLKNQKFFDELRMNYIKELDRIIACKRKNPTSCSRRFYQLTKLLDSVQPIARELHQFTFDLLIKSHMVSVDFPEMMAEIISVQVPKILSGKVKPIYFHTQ

Vasopressin V1a receptor, sequence (P37288 whole entry): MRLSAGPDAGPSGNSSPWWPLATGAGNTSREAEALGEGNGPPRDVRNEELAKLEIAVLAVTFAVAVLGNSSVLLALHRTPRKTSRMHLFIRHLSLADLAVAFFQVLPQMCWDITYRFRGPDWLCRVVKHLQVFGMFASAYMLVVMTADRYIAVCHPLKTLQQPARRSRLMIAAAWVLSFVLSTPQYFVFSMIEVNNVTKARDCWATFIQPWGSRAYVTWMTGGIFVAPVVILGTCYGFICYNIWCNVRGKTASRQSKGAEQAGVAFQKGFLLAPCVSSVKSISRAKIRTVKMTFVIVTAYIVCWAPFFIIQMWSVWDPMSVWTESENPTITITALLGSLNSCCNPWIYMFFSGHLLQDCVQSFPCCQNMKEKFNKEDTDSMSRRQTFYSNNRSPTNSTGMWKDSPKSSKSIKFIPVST

Q: Which results are given for `CC(=O)O[C@]1(C(C)=O)CC[C@H]2[C@@H]3C=C(C)C4=CC(=O)CC[C@]4(C)[C@H]3CC[C@@]21C` [MEGESTROL ACETATE]?
A: IC50 [1]: Not Active; IC50 [2]: 19 nM; Ki [2]: 8.77 nM; IC50 [3]: Not Active; Ki [3]: Not Active; IC50 [4]: Not Active; Ki [4]: Not Active; IC50 ([5]; read-out: IC50): 11 nM; Ki [5]: 1.44 nM

Q: With `O=C(c1ccccc1Cl)N1CCC(Cc2ccccc2)CC1` as the compound, how does the IC50 [1] read?
A: Not Active

Q: And the IC50 [6]?
A: 200 nM

Q: What about the IC50 [3] of the same compound?
A: Not Active

Q: And the Ki [3]?
A: Not Active

Q: And the IC50 [7]?
A: Not Active

Q: What about the IC50 [4] of the same compound?
A: Not Active

Q: And the Ki [4]?
A: Not Active

Q: And the IC50 [5]?
A: Not Active

Q: Which IC50 [1] does the source give for `OCCO` [ETHYLENE GLYCOL] here?
A: Not Active

Q: What about the IC50 [3] of the same compound?
A: Not Active

Q: And the Ki [3]?
A: Not Active

Q: And the IC50 [7]?
A: Not Active

Q: What about the IC50 [4] of the same compound?
A: Not Active

Q: And the Ki [4]?
A: Not Active

Q: What about the IC50 [5] of the same compound?
A: Not Active

Q: Which IC50 [1] does the source give for `O=C(/C=C/c1ccc(O)c(O)c1)OCCc1ccccc1` [CAFFEIC ACID PHENETHYL ESTER] here?
A: Not Active

Q: What about the IC50 [3] of the same compound?
A: Not Active

Q: What about the Ki [3] of the same compound?
A: Not Active

Q: What about the IC50 [7] of the same compound?
A: Not Active

Q: And the IC50 [4]?
A: Not Active

Q: And the Ki [4]?
A: Not Active

Q: What about the IC50 [5] of the same compound?
A: Not Active

Q: With `CCCCCC[C@H]1C(=O)O[C@H](C)[C@H](NC(=O)c2cccc(NC=O)c2O)C(=O)O[C@@H](C)[C@@H]1OC(=O)CC(C)C` [ANTIMYCIN A] as the compound, how does the IC50 [1] read?
A: Not Active

Q: What about the IC50 [3] of the same compound?
A: Not Active

Q: What about the Ki [3] of the same compound?
A: Not Active

Q: What about the IC50 [7] of the same compound?
A: Not Active

Q: What about the IC50 [4] of the same compound?
A: Not Active

Q: And the Ki [4]?
A: Not Active

Q: What about the IC50 [5] of the same compound?
A: Not Active

Q: Which IC50 [1] does the source give for `C#C[C@]1(O)CC[C@H]2[C@@H]3CCC4=Cc5oncc5C[C@]4(C)[C@H]3CC[C@@]21C` [DANAZOL] here?
A: Not Active

Q: And the IC50 [2]?
A: 4310 nM

Q: And the Ki [2]?
A: 1960 nM

Q: And the IC50 ([3]; read-out: IC50)?
A: 54300 nM

Q: What about the Ki ([3]; read-out: Ki) of the same compound?
A: 44300 nM

Q: What about the IC50 [4] of the same compound?
A: Not Active

Q: And the Ki [4]?
A: Not Active

Q: And the IC50 ([5]; read-out: IC50)?
A: 259 nM

Q: What about the Ki [5] of the same compound?
A: 34 nM

Q: What does the source list for `N=C(N)N/N=C/c1c(Cl)cccc1Cl` [GUANABENZ]?
A: IC50 [1]: Not Active; IC50 [3]: Not Active; Ki [3]: Not Active; IC50 [7]: Not Active; IC50 [4]: Not Active; Ki [4]: Not Active; IC50 [5]: Not Active

Q: Which IC50 [1] does the source give for `CC[C@]1(O)CC[C@H]2[C@@H]3CCC4=CCCC[C@@H]4[C@H]3CC[C@@]21C` here?
A: Not Active

Q: And the IC50 [6]?
A: 1290 nM

Q: And the IC50 [3]?
A: Not Active

Q: What about the Ki [3] of the same compound?
A: Not Active

Q: What about the IC50 [4] of the same compound?
A: Not Active

Q: What about the Ki [4] of the same compound?
A: Not Active

Q: What about the IC50 ([5]; read-out: IC50) of the same compound?
A: 201 nM

Q: What about the Ki [5] of the same compound?
A: 26 nM

Q: Which results are given for `COc1ccc(Cc2nccc3cc(OC)c(OC)cc23)cc1OC` [PAPAVERINE]?
A: IC50 [1]: Not Active; IC50 [6]: 762 nM; IC50 [3]: Not Active; Ki [3]: Not Active; IC50 [7]: Not Active; IC50 [4]: Not Active; Ki [4]: Not Active; IC50 [5]: Not Active

Q: With `C#C[C@]1(O)CC[C@H]2[C@@H]3CCc4cc(O)ccc4[C@H]3CC[C@@]21C` [ETHINYL ESTRADIOL] as the compound, how does the IC50 [1] read?
A: Not Active

Q: And the IC50 [2]?
A: 1710 nM

Q: And the Ki [2]?
A: 777 nM

Q: What about the IC50 [3] of the same compound?
A: Not Active

Q: What about the Ki [3] of the same compound?
A: Not Active

Q: What about the IC50 [4] of the same compound?
A: Not Active

Q: What about the Ki [4] of the same compound?
A: Not Active

Q: And the IC50 ([5]; read-out: IC50)?
A: 1070 nM

Q: And the Ki [5]?
A: 139 nM

Q: What does the source list for `C[C@H]([C@](O)(Cn1cncn1)c1ccc(F)cc1F)S(C)(=O)=O` [GENACONAZOLE]?
A: IC50 [1]: Not Active; IC50 [3]: Not Active; Ki [3]: Not Active; IC50 [7]: Not Active; IC50 [4]: Not Active; Ki [4]: Not Active; IC50 [5]: Not Active

Q: For `C[C@@H]1CC[C@H]2[C@@H](C)C(=O)O[C@@H]3O[C@@]4(C)CC[C@@H]1[C@]32OO4` [ARTEMISININ], which IC50 [1] is on record?
A: Not Active

Q: And the IC50 [3]?
A: Not Active

Q: What about the Ki [3] of the same compound?
A: Not Active

Q: What about the IC50 [7] of the same compound?
A: Not Active

Q: What about the IC50 [4] of the same compound?
A: Not Active

Q: What about the Ki [4] of the same compound?
A: Not Active

Q: What about the IC50 [5] of the same compound?
A: Not Active

Q: For `Nn1nnc2ccccc21`, which IC50 [1] is on record?
A: Not Active

Q: And the IC50 [3]?
A: Not Active

Q: What about the Ki [3] of the same compound?
A: Not Active

Q: What about the IC50 [7] of the same compound?
A: Not Active

Q: And the IC50 [4]?
A: Not Active

Q: And the Ki [4]?
A: Not Active

Q: And the IC50 [5]?
A: Not Active

Q: For `O=C(O)Cc1ccc(-c2ccccc2)cc1` [FELBINAC], which IC50 [1] is on record?
A: Not Active

Q: And the IC50 [3]?
A: Not Active

Q: And the Ki [3]?
A: Not Active

Q: And the IC50 [7]?
A: Not Active

Q: And the IC50 [4]?
A: Not Active

Q: And the Ki [4]?
A: Not Active

Q: What about the IC50 [5] of the same compound?
A: Not Active
